Values of other authors in PubChem BioAssay AID1259409 (Chemical Carcinogenesis Research Information System (CCRIS), 2018).

Tested on: rodent chemically induced tumor inhibition, incidence and multiplicity
Experiment: CCRIS tumor inhibitor studies
Details: Route [Inhibitor]: ORAL, Promoter: NONE USED
From the text: The CCRIS database contains chemical records with carcinogenicity, mutagenicity, tumor promotion, and tumor inhibition test results. It was developed by the National Cancer Institute (NCI). Data are derived from studies cited in primary journals, current awareness tools, NCI reports, and other sources. Test results have been reviewed by experts in carcinogenesis and mutagenesis.
CCRIS provides historical information from the years 1985 - 2011. It is no longer updated.
This is an archive assay for CCRIS tumor inhibitor studies.

COc1ccc([C@@H]2CC(=O)c3c(O)cc(O[C@@H]4O[C@H](CO[C@@H]5O[C@@H](C)[C@H](O)[C@@H](O)[C@H]5O)[C@@H](O)[C@H](O)[C@H]4O)cc3O2)cc1O
tumour outcome (control, treated, inhibition, significance) (Carcinogen: AZOXYMETHANE, 25843-45-2, Dose [Inhibitor]: 0, 1000 PPM IN DIET FOR 28 WK BEGINNING 1 WK POST CARCINOGEN TREATMENT (STUDY DURATION: 32 WK), Species: RAT, Strain/Sex: F344/MALE, Target Tissue: Type of Lesion: SMALL INTESTINE: TUMOR, Dose [Carcinogen]: 15 MG/KG BW 1/WK FOR 3 WK): 5/17 (29%), 0/20 (0%), 100%, p<0.05 | tumour outcome (control, treated, inhibition, significance) (Carcinogen: N-BUTYL-N-(4-HYDROXYBUTYL)NITROSAMINE, 3817-11-6, Dose [Inhibitor]: 0, 1000 PPM IN DIET FOR 8 WK BEGINNING 1 WK PRIOR TO CARCINOGEN TREATMENT (STUDY DURATION: 32 WK), Species: MOUSE, Strain/Sex: ICR/MALE, Target Tissue: Type of Lesion: URINARY BLADDER: PAPILLOMA, Dose [Carcinogen]: 500 PPM IN DRINKING WATER FOR 6 WK): 5/26 (19%), 1/23 (4%), 79%, not significant | tumour outcome (control, treated, inhibition, significance) (Carcinogen: N-BUTYL-N-(4-HYDROXYBUTYL)NITROSAMINE, 3817-11-6, Dose [Inhibitor]: 0, 1000 PPM IN DIET FOR 24 WK BEGINNING 1 WK POST CARCINOGEN TREATMENT (STUDY DURATION: 32 WK), Species: MOUSE, Strain/Sex: ICR/MALE, Target Tissue: Type of Lesion: URINARY BLADDER: PAPILLOMA, Dose [Carcinogen]: 500 PPM IN DRINKING WATER FOR 6 WK): 5/26 (19%), 3/25 (12%), 37%, not significant | tumour outcome (control, treated, inhibition, significance) (Carcinogen: N-BUTYL-N-(4-HYDROXYBUTYL)NITROSAMINE, 3817-11-6, Dose [Inhibitor]: 0, 1000 PPM IN DIET FOR 24 WK BEGINNING 1 WK POST CARCINOGEN TREATMENT (STUDY DURATION: 32 WK), Species: MOUSE, Strain/Sex: ICR/MALE, Target Tissue: Type of Lesion: URINARY BLADDER: TRANSITIONAL CELL CARCINOMA, Dose [Carcinogen]: 500 PPM IN DRINKING WATER FOR 6 WK): 16/26 (62%), 5/25 (20%), 68%, p<0.005 | tumour outcome (control, treated, inhibition, significance) (Carcinogen: N-BUTYL-N-(4-HYDROXYBUTYL)NITROSAMINE, 3817-11-6, Dose [Inhibitor]: O, 1000 PPM IN DIET FOR 8 WK BEGINNING 1 WK PRIOR TO CARCINOGEN TREATMENT (STUDY DURATION: 32 WK), Species: MOUSE, Strain/Sex: ICR/MALE, Target Tissue: Type of Lesion: URINARY BLADDER: TRANSITIONAL CELL CARCINOMA, Dose [Carcinogen]: 500 PPM IN DRINKING WATER FOR 6 WK): 16/26 (62%), 3/23 (13%), 79%, p<0.001 | tumour outcome (control, treated, inhibition, significance) (Carcinogen: N-METHYL-N-AMYLNITROSAMINE, 13256-07-0, Dose [Inhibitor]: 0, 1000 PPM IN DIET FOR 7 WK BEGINNING 1 WK POST CARCINOGEN TREATMENT (STUDY DURATION: 20 WK), Species: RAT, Strain/Sex: WISTAR/MALE, Target Tissue: Type of Lesion: ESOPHAGUS: SQUAMOUS CELL CARCINOMA, Dose [Carcinogen]: 12.5 MG/KG BW 1/WK FOR 12 WK): 75%, 56%, 25%, not significant | tumour outcome (control, treated, inhibition, significance) (Carcinogen: N-METHYL-N-AMYLNITROSAMINE, 13256-07-0, Dose [Inhibitor]: 0, 1000 PPM IN DIET FOR 7 WK BEGINNING 1 WK POST CARCINOGEN TREATMENT (STUDY DURATION: 20 WK), Species: RAT, Strain/Sex: WISTAR/MALE, Target Tissue: Type of Lesion: ESOPHAGUS: SQUAMOUS CELL PAPILLOMA, Dose [Carcinogen]: 12.5 MG/KG BW 1/WK FOR 12 WK): 100%, 100%, 0%, not significant | tumour outcome (control, treated, inhibition, significance) (Carcinogen: N-METHYL-N-AMYLNITROSAMINE, 13256-07-0, Dose [Inhibitor]: 0, 1000 PPM IN DIET FOR 7 WK BEGINNING 1 WK POST CARCINOGEN TREATMENT (STUDY DURATION: 20 WK), Species: RAT, Strain/Sex: WISTAR/MALE, Target Tissue: Type of Lesion: TONGUE: SQUAMOUS CELL CARCINOMA, Dose [Carcinogen]: 12.5 MG/KG BW 1/WK FOR 12 WK): 17%, 16%, 6%, not significant | tumour outcome (control, treated, inhibition, significance) (Carcinogen: N-METHYL-N-AMYLNITROSAMINE, 13256-07-0, Dose [Inhibitor]: 0, 1000 PPM IN DIET FOR 7 WK BEGINNING 1 WK POST CARCINOGEN TREATMENT (STUDY DURATION: 20 WK), Species: RAT, Strain/Sex: WISTAR/MALE, Target Tissue: Type of Lesion: TONGUE: SQUAMOUS CELL PAPILLOMA, Dose [Carcinogen]: 12.5 MG/KG BW 1/WK FOR 12 WK): 33%, 16%, 52%, not calculated | tumour outcome (control, treated, inhibition, significance) (Carcinogen: N-METHYL-N-AMYLNITROSAMINE, 13256-07-0, Dose [Inhibitor]: 0, 1000 PPM IN DIET FOR 13 WK BEGINNING 1 WK PRIOR TO CARCINOGEN TREATMENT (STUDY DURATION: 20 WK), Species: RAT, Strain/Sex: WISTAR/MALE, Target Tissue: Type of Lesion: ESOPHAGUS: SQUAMOUS CELL CARCINOMA, Dose [Carcinogen]: 12.5 MG/KG BW 1/WK FOR 12 WK): 75%, 45%, 40%, not significant | tumour outcome (control, treated, inhibition, significance) (Carcinogen: N-METHYL-N-AMYLNITROSAMINE, 13256-07-0, Dose [Inhibitor]: 0, 1000 PPM IN DIET FOR 13 WK BEGINNING 1 WK PRIOR TO CARCINOGEN TREATMENT (STUDY DURATION: 20 WK), Species: RAT, Strain/Sex: WISTAR/MALE, Target Tissue: Type of Lesion: ESOPHAGUS: SQUAMOUS CELL PAPILLOMA, Dose [Carcinogen]: 12.5 MG/KG BW 1/WK FOR 12 WK): 100%, 100%, 0%, not significant | tumour outcome (control, treated, inhibition, significance) (Carcinogen: N-METHYL-N-AMYLNITROSAMINE, 13256-07-0, Dose [Inhibitor]: 0, 1000 PPM IN DIET FOR 13 WK BEGINNING 1 WK PRIOR TO CARCINOGEN TREATMENT (STUDY DURATION: 20 WK), Species: RAT, Strain/Sex: WISTAR/MALE, Target Tissue: Type of Lesion: TONGUE: SQUAMOUS CELL CARCINOMA, Dose [Carcinogen]: 12.5 MG/KG BW 1/WK FOR 12 WK): 17%, 0%, 100%, not calculated | tumour outcome (control, treated, inhibition, significance) (Carcinogen: N-METHYL-N-AMYLNITROSAMINE, 13256-07-0, Dose [Inhibitor]: 0, 1000 PPM IN DIET FOR 13 WK BEGINNING 1 WK PRIOR TO CARCINOGEN TREATMENT (STUDY DURATION: 20 WK), Species: RAT, Strain/Sex: WISTAR/MALE, Target Tissue: Type of Lesion: TONGUE: SQUAMOUS CELL PAPILLOMA, Dose [Carcinogen]: 12.5 MG/KG BW 1/WK FOR 12 WK): 33%, 10%, 70%, not significant
